From ChEMBL document CHEMBL3853272, “Polymerase Acidic Protein-Basic Protein 1 (PA-PB1) Protein-Protein Interaction as a Target for Next-Generation Anti-influenza Therapeutics” (J Med Chem, 2016)
pEC50, pIC50, pKd: −log10 of the molar value.

Experiments:
[1] = Inhibition of Influenza B virus HA-tagged PA/PB1 interaction in HEK293T cells assessed as inhibition of viral growth by competitive ELISA; format: cell-based; details: hek-293t
[2] = target: Polymerase acidic protein /RNA-directed RNA polymerase catalytic subunit (Influenza A virus (strain A/Wilson-Smith/1933 H1N1), UniProt P03430+P15659); test: Inhibition of Influenza A virus A/WSN/1933(H1N1) HA-tagged PA/PB1 interaction in HEK293T cells assessed as inhibition of viral growth by competitive ELISA; format: cell-based, HEK-293T
[3] = target: Polymerase acidic protein (Influenza A virus (A/Puerto Rico/8/1934(H1N1)), UniProt P03433); test: Binding affinity to PA cavity of recombinant Influenza A virus A/PR/8/34(H1N1) PA (239 to 716 residues) measured after 2 mins by SPR analysis
[4] = Antiviral activity against Influenza A virus A/PR/8/34 (H1N1) infected in MDCK cells assessed as reduction in plaque formation after 2 days by plaque reduction assay; format: functional, cell-based, Influenza A virus (A/Puerto Rico/8/1934(H1N1)); details: 48 h
[5] = Cytotoxicity against MDCK cells measured after 24 to 120 hrs by MTT assay; format: toxicity, cell-based, Canis lupus familiaris; details: dog
[6] = tested on: Influenza A virus (A/Puerto Rico/8/1934(H1N1)); test: (§1) Inhibition of Influenza A virus A/PR/8/34(H1N1) 6His-tagged PA (239 to 716 residues)/GST-tagged PB1 (1 to 15 residues) fused with HIV-Tat interaction by ELISA
[7] = as §1; design: species or system Influenza A virus (A/Puerto Rico/8/1934(H1N1))
HEK-293T = test: (§2) Inhibition of Influenza A virus A/PR/8/34 RNA-dependent-RNA polymerase transfected in HEK293T cells assessed as reduction in viral growth after 24 hrs by minireplicon assay; format: cell-based; details: Influenza A virus (A/Puerto Rico/8/1934(H1N1))
[8] = as §2; format: cell-based, Influenza A virus (A/Puerto Rico/8/1934(H1N1)); details: hek-293t
[9] = Cytotoxicity against MDCK cells by MTT assay; format: toxicity, cell-based, Canis lupus familiaris; details: dog
Influenza A virus = test: Antiviral activity at Influenza A virus infected in MDCK cells by plaque reduction assay; format: functional, cell-based
Influenza B virus = test: Antiviral activity at Influenza B virus infected in MDCK cells by plaque reduction assay; format: functional, cell-based
[10] = Inhibition of Influenza A virus A/WSN/1933(H1N1) PA/PB1 interaction transfected in HEK293T cells assessed as inhibition of viral growth measured after 24 hrs by minireplicon assay; format: cell-based; details: hek-293t
[11] = Inhibition of Influenza A virus A/PR/8/34(H1N1) 6His-tagged PA (239 to 716 residues)/GST-tagged PB1 (1 to 15 residues) interaction; design: species or system Influenza A virus (A/Puerto Rico/8/1934(H1N1))
[12] = Inhibition of Influenza A virus A/PR/8/34(H1N1) RNA-dependent-RNA polymerase transfected in MDCK cells assessed as reduction in viral growth after 24 hrs by minireplicon assay; format: cell-based, Influenza A virus (A/Puerto Rico/8/1934(H1N1))
[13] = Inhibition of Influenza B virus B/Lee/40 RNA-dependent-RNA polymerase transfected in MDCK cells assessed as reduction in viral growth after 24 hrs by minireplicon assay; format: cell-based, Influenza B virus (B/Lee/1940)

Molecule: H-MDVNPYLLFLKVPAQ-OH
- pIC50 [1]: 6.97
- pIC50 [2]: 7.66

Molecule: CSCC[C@H](N)C(=O)N[C@@H](CC(=O)O)C(=O)N[C@H](C(=O)N[C@@H](CC(N)=O)C(=O)N1CCC[C@H]1C(=O)N[C@H](C(=O)N[C@@H](CC(C)C)C(=O)N[C@@H](CC(C)C)C(=O)N[C@@H](Cc1ccccc1)C(=O)N[C@@H](CC(C)C)C(=O)N[C@@H](CCCCN)C(=O)N[C@H](C(=O)N1CCC[C@H]1C(=O)N[C@@H](C)C(=O)N[C@@H](CCC(N)=O)C(=O)O)C(C)C)[C@@H](C)O)C(C)C
- pIC50 [1]: < 5.52

Molecule: CSCC[C@H](N)C(=O)N[C@@H](CC(=O)O)C(=O)N[C@H](C(=O)N[C@@H](CC(N)=O)C(=O)N1CCC[C@H]1C(=O)N[C@@H](Cc1ccccc1)C(=O)N[C@@H](CC(C)C)C(=O)N[C@@H](CC(C)C)C(=O)N[C@@H](Cc1ccccc1)C(=O)N[C@@H](CC(C)C)C(=O)N[C@@H](CCCCN)C(=O)N[C@H](C(=O)N[C@@H](CCCCN)C(=O)N[C@@H](C)C(=O)N[C@@H](CCC(N)=O)C(=O)O)C(C)C)C(C)C
- pIC50 [2]: 7.78

Molecule: CSCC[C@H](N)C(=O)N[C@@H](CC(=O)O)C(=O)N[C@@H](Cc1ccc(O)cc1)C(=O)N[C@@H](CC(N)=O)C(=O)N1CCC[C@H]1C(=O)N[C@@H](Cc1ccccc1)C(=O)N[C@@H](CC(C)C)C(=O)N[C@@H](CC(C)C)C(=O)N[C@@H](Cc1ccccc1)C(=O)N[C@@H](CC(C)C)C(=O)N[C@@H](CCCCN)C(=O)N[C@H](C(=O)N1CCC[C@H]1C(=O)N[C@@H](C)C(=O)N[C@@H](CCC(N)=O)C(=O)O)C(C)C
- pIC50 [2]: 8.20

Molecule: CC[C@H](C)[C@H](NC(=O)[C@@H]1CCCN1C(=O)[C@@H](NC(=O)[C@H](CCCCN)NC(=O)[C@H](CC(C)C)NC(=O)[C@H](Cc1ccccc1)NC(=O)[C@H](CC(C)C)NC(=O)[C@H](CC(C)C)NC(=O)[C@H](Cc1ccccc1)NC(=O)[C@@H]1CCCN1C(=O)[C@H](CC(N)=O)NC(=O)[C@@H](NC(=O)[C@H](CC(=O)O)NC(=O)[C@@H](N)CCSC)C(C)C)C(C)C)C(=O)N[C@@H](CCC(N)=O)C(=O)O
- pIC50 [2]: 7.66

Molecule: CCc1oc2ccccc2c1C(=O)c1cc(Br)c(O)c(Br)c1 [BENZBROMARONE]
- pKd [3]: 4.32
- pEC50 [4]: 4.41

Molecule: COc1ccc(C(=O)Nc2nc3n(n2)C(c2ccccc2)C=C(C)N3)cc1 (centres undefined)
- CC50 [5]: > 250 µM
- pEC50 [4]: < 4.00
- inhibition [6]: Dose-dependent effect
- pIC50 [7]: 3.77
- inhibition (HEK-293T): Dose-dependent effect
- pIC50 [8]: < 4.00

Molecule: COc1ccc(CC2(CCC(=O)NC(C)Cn3ccc4ccccc43)CCC(=O)N2)cc1 (centres undefined)
- CC50 [5]: > 250 µM
- pEC50 [4]: < 4.00
- inhibition [6]: Dose-dependent effect
- pIC50 [7]: 3.70
- inhibition (HEK-293T): Dose-dependent effect
- pIC50 [8]: < 4.00

Molecule: N#CC(c1ccc(Cl)cc1)c1c(Cl)cc(-n2ncc(=O)[nH]c2=O)cc1Cl (centres undefined) [DICLAZURIL]
- pKd [3]: 3.68
- pEC50 [4]: 4.51

Molecule: CSCC[C@H](N)C(=O)N[C@@H](CC(=O)O)C(=O)N[C@H](C(=O)N[C@@H](CC(N)=O)C(=O)N1CCC[C@H]1C(=O)N[C@@H](Cc1ccccc1)C(=O)N[C@@H](CC(C)C)C(=O)N[C@@H](CC(C)C)C(=O)N[C@@H](Cc1ccccc1)C(=O)N[C@@H](CC(C)C)C(=O)N[C@@H](CCCCN)C(=O)N[C@H](C(=O)N1CCC[C@H]1C(=O)N[C@@H](C)C(=O)N[C@@H](Cc1ccccc1)C(=O)O)C(C)C)C(C)C
- pIC50 [2]: 7.86

Molecule: CC(=O)O[C@H]1CC[C@H]2[C@@H]3CCC4=CC(=O)CCC4=C3C=C[C@]12C [TRENBOLONE ACETATE]
- pKd [3]: 4.04
- pEC50 [4]: 4.29

Molecule: H-MNINPYFLFIDVPIQ-OH
- pIC50 [1]: 7.35
- pIC50 [2]: < 5.52

Molecule: O=[N+]([O-])c1ccc(Sc2cccc(-n3ccnc3)c2)c2nonc12
- pEC50 [4]: 5.00
- CC50 [9]: 20 µM
- pIC50 [7]: 4.82

Molecule: CC(C)C[C@H](NC(=O)[C@H](Cc1ccccc1)NC(=O)[C@H](CC(C)C)NC(=O)[C@H](CC(C)C)NC(=O)[C@@H](NC(=O)[C@@H]1CCCN1)[C@@H](C)O)C(=O)N[C@@H](CCCCN)C(=O)O
- pIC50 [2]: < 5.00

Molecule: COC(=O)C1=C(N)N(c2cccc(Cl)c2C)C2=C(C(=O)CCC2)C1c1ccc2c(c1)OCO2 (centres undefined)
- CC50 [5]: > 1000 µM
- pEC50 (Influenza A virus): 4.92
- pEC50 (Influenza B virus): 4.92
- pEC50 [4]: 4.73
- inhibition [6]: Dose-dependent effect
- pIC50 [7]: 4.52
- inhibition (HEK-293T): Dose-dependent effect
- pIC50 [8]: 4.74

Molecule: Nc1ccc(O)c2c1C(=O)c1c(N)ccc(O)c1C2=O
- pIC50 [10]: 4.80
- pIC50 [11]: 4.70
- CC50 [5]: > 250 µM
- pEC50 (Influenza A virus): 4.89
- pEC50 [12]: 4.85
- pEC50 [13]: 5.08

Molecule: NC(=O)c1c(NC(=O)c2cnn3c(C(F)F)cc(-c4ccccc4)nc23)sc2c1CCC2
- CC50 [5]: > 1000 µM
- pEC50 [4]: 4.12
- inhibition [6]: Dose-dependent effect
- pIC50 [7]: 4.60
- inhibition (HEK-293T): Dose-dependent effect
- pIC50 [8]: 4.51

Molecule: O=[N+]([O-])c1ccc(Oc2ccc(-n3cc(CO)nn3)cc2)c2nonc12
- pEC50 [4]: 6.00
- CC50 [9]: 40 µM
- pIC50 [7]: 4.46
